The source of these data is ChEMBL document CHEMBL1134372, “Bisphosphonates inhibit the growth of Trypanosoma brucei, Trypanosoma cruzi, Leishmania donovani, Toxoplasma gondii, and Plasmodium falciparum: a potential route to chemotherapy” (J Med Chem, 2001).

Assay [1] has as its system Trypanosoma cruzi. Description: Inhibition of Trypanosoma cruzi Amastigotes was determined in γ-irradiated L6E9 myoblasts culture and fetal calf serum.
Assay [2] concerns Trypanosoma cruzi. Description: Effect on proliferation of Trypanosoma cruzi Amastigotes in vero cells at a conc of 150 uM was determined. It counts as functional.
Assay [3] concerns Leishmania donovani. Description: Inhibition of L. donovani (Amastigotes) strain MHOM/ET/67/L82 maintained in female golden hamsters. In kind it is functional, organism-based.
For assay [4], the system named is Vero. Description: Percent infected vero cells was determined. In kind it is functional.
In assay [5] the test system is Plasmodium falciparum. The assay can be described thus: Inhibition of Plasmodium falciparum 3D7 in erythrocytes. It counts as functional, organism-based.
Assay [6] deals with Trypanosoma brucei. Description: Inhibition of Trypanosoma rhodesiense (strain STIB900) was determined using blood stream from trypomastigotes. In kind it is functional, organism-based.
For assay [7], the system named is Toxoplasma gondii. Description: Inhibition of Toxoplasma gondii tachyzoites in human foreskin fibroblast monolayer(DMEM with 10%fetal calf serum). It counts as functional, organism-based.
In assay [8] the test system is Leishmania donovani. Description: Inhibition of L. donovani (Amastigotes) strain MHOM/ET/67/L82 maintained in pathogen free spleen from female golden hamsters; toxic. It counts as functional, organism-based.
Assay [9] relates to Vero. The assay can be described thus: Percent infected Vero cells was determined. In kind it is functional.
Assay [10] has as its system Leishmania donovani. The assay can be described thus: Inhibition of L. donovani (Amastigotes) strain MHOM/ET/67/L82 maintained in pathogen free spleen from female golden hamsters. It counts as functional, organism-based.
Assay [11] deals with Trypanosoma cruzi. The assay can be described thus: Inhibition of Trypanosoma cruzi Amastigotes was determined in γ-irradiated L6E9 myoblasts culture and fetal calf serum. This is another data set of the same source.
Assay [12] relates to Trypanosoma cruzi. The assay can be described thus: microbe, parasite or virus in culture.
Description: Compound was evaluated for anti-parasitic activity against Trypanosoma cruzi
Assay [13] concerns Trypanosoma brucei. Description: Compound was evaluated for anti-parasitic activity against Trypanosoma brucei. It counts as functional, organism-based.
Assay [14] concerns Trypanosoma cruzi. The assay can be described thus: Effect on inhibition on proliferation of Trypanosoma cruzi Amastigotes in vero cells at a conc of 150 uM. In kind it is functional.

Turning to `O=P(O)(O)C(O)(CCc1cccnc1)P(=O)(O)O`, the IC50 (as a rule, the concentration that inhibits the measured activity by half) in [1] is over 200 µM; in assay [3], over 200 µM; in [5], over 200 µM; in assay [6], 1.7 µM; in assay [7] (read-out: IC50), over 200 µM. For the same molecule, testing at 150 µM in assay [2] gave an inhibition of 81%. In assay [4], this molecule gave an Infected of 6%.

Turning to `NCCCCC(O)(P(=O)(O)O)P(=O)(O)O`, the IC50 in assay [1] is over 200 µM; in assay [3], 129 µM; in [5] it was over 200 µM; in assay [6] it was over 200 µM; in [7] (read-out: IC50), over 200 µM.

As for `CCCCC(O)(P(=O)(O)O)P(=O)(O)O`, the half-maximal inhibitory concentration (IC50) in [1] was over 200 µM; in [3], over 200 µM; in assay [5], 56.7 µM; in assay [6], 99.8 µM.

Take `CCCCCC(O)(P(=O)(O)O)P(=O)(O)O`: the IC50 is over 200 µM in assay [1], over 200 µM in assay [3], 5.1 µM in [5] and 62.4 µM in [6].

With `O=P(O)(O)C(O)(Cc1c[nH]cn1)P(=O)(O)O`, the IC50 in assay [1] was 35 µM; in assay [8] it was “Toxic”; in assay [5], over 200 µM; in assay [6] it was 8.6 µM.

Regarding `CCOP(=O)(OCC)C(Nc1ncccc1C)P(=O)(OCC)OCC`, the IC50 is over 200 µM in assay [1], 82.1 µM in assay [3], over 200 µM in assay [5] and 27.9 µM in assay [6]. The same molecule came in with an Infected in assay [9] of 9%. In addition, in assay [2], the inhibition (as a rule, the change of the read-out against control, counted positive when it falls) at 150 µM came out at 69%.

As to `Nc1ccc(CC(O)(P(=O)(O)O)P(=O)(O)O)cc1`, the IC50 is over 200 µM in [1]; over 200 µM in assay [3]; over 200 µM in assay [5]; 40 µM in assay [6]; 68.2 µM in [7] (read-out: IC50).

With `O=P(O)(O)C(O)(Cc1ccccn1)P(=O)(O)O`, the IC50 in assay [1] is 105 µM; in assay [8], “Toxic”; in assay [5] it was over 200 µM; in assay [6], 0.22 µM; in assay [7] (read-out: IC50) it was 9.1 µM.

Regarding `CCCC(O)(P(=O)(O)O)P(=O)(O)O`, the IC50 is over 200 µM in assay [1]; over 200 µM in assay [3]; 130 µM in assay [5]; 92 µM in [6]; 9.1 µM in [7].

Turning to `Cc1cccnc1NC(P(=O)(O)O)P(=O)(O)O`, the IC50 in [1] was 147 µM; in assay [8], “Toxic”; in assay [5], over 200 µM; in [6], 0.7 µM.

For the molecule `CC(N)CC(O)(P(=O)(O)O)P(=O)(O)O` (stereo unspecified), the IC50 in assay [1] was over 200 µM; in assay [10] it was over 200 µM; in [5], over 200 µM; in [6], 7.8 µM.

For `O=P(O)(O)C(O)(CSc1ccncc1)P(=O)(O)O`, the IC50 was over 200 µM in assay [1], over 200 µM in [3], 158 µM in assay [5] and 19.8 µM in assay [6]. In assay [9], this molecule yielded an Infected of 33%. In addition, the inhibition at 150 µM in assay [2] amounted to 0%.

Turning to `O=P(O)(O)C(O)(Cc1ccncc1)P(=O)(O)O`, the IC50 in [3], in assay [5], in [6], in assay [7] (read-out: IC50) and in assay [11] was over 200 µM each time.

Regarding `O=P(O)(O)C(O)(Cc1ccccc1)P(=O)(O)O`, the IC50 was over 200 µM in [1], over 200 µM in assay [3], 7.7 µM in assay [5] and 21.3 µM in assay [6]. Besides, the Infected in [9] came to 30%. In [2], this molecule showed an inhibition at 150 µM of 6%.

For `NCCCC(O)(P(=O)(O)O)P(=O)(O)O` [ALENDRONIC ACID], the IC50 was 25 µM in [1], 82.5 µM in [3], over 200 µM in [5] and over 200 µM in assay [6].

`O=C(Cn1ccnc1[N+](=O)[O-])NCc1ccccc1` [BENZNIDAZOLE] came in with a 50% inhibitory concentration (IC50) in assay [12] of 3.5 µM.

As to `NCCCCCC(O)(P(=O)(O)O)P(=O)(O)O` [NERIDRONIC ACID], the IC50 is over 200 µM in [1], over 200 µM in [3], over 200 µM in [5] and 31.7 µM in [6].

Turning to `CN(C)CCC(O)(P(=O)(O)O)P(=O)(O)O` [OLPADRONIC ACID], the IC50 in [1] is over 200 µM; in [3], over 200 µM; in assay [5], over 200 µM; in assay [6], 5.4 µM.

As for `NCCC(O)(P(=O)(O)O)P(=O)(O)O` [PAMIDRONIC ACID], the IC50 in assay [1] is 60 µM; in assay [8], “Toxic”; in [5] it was over 200 µM; in assay [6] it was 177 µM; in [7] (read-out: IC50) it was 35.6 µM.

On to `N=C(N)c1ccc(OCCCCCOc2ccc(C(=N)N)cc2)cc1` [PENTAMIDINE], for which, in assay [13], the IC50 is 0.035 µM.

For `O=P(O)(O)C(O)(Cc1cccnc1)P(=O)(O)O` [RISEDRONIC ACID], the IC50 is 123 µM in assay [1]; 2.3 µM in assay [3]; 123 µM in assay [5]; 8.6 µM in assay [6]; 0.49 µM in [7] (read-out: IC50). The inhibition at 150 µM in assay [14] is 100%. This molecule showed an Infected in assay [4] of 0%.
